In ChEMBL document CHEMBL1132818, “Use of bicuculline, a GABA antagonist, as a template for the development of a new class of ligands showing positive allosteric modulation of the GABA(A) receptor” (Bioorg Med Chem Lett, 2000):

Legend:
[1] = target: T1, GABA-A receptor; anion channel (Rattus norvegicus) (UniProt O09028+P15431+P18506+P18508+P19969+P20236+P23574+P23576+P28471+P28473+P30191+P62813+P63079+P63138+Q91ZM7+Q9ES14); assay: Displacement of [3H]flunitrazepam from GABA-A receptor of rat brain membrane preparations at 10 uM
[2] = target: T1, GABA-A receptor; anion channel (Rattus norvegicus); assay: In vitro displacement of [35S]TBPS from Gamma-aminobutyric acid A receptor of rat brain membrane preparations at 10 uM
[3] = target: GABA-A receptor; anion channel; assay: Displacement of [3H]flunitrazepam from GABA-A receptor of rat cerebellar tissue; assay type: protein-complex assay
[4] = target: GABA-A receptor; anion channel; assay: Displacement of [3H]flunitrazepam from GABA-A receptor of rat forebrain tissue
[5] = target: T1, GABA-A receptor; anion channel (Rattus norvegicus); assay: In vitro displacement of [3H]muscimol from Gamma-aminobutyric acid A receptor of rat brain membrane preparations at 10 uM
[6] = target: T1, GABA-A receptor; anion channel (Rattus norvegicus); assay: In vitro displacement of [3H]-muscimol from Gamma-aminobutyric acid A receptor of rat brain membrane preparations at 100 uM (Limited solubility)
[7] = target: T2, GABA-A receptor; alpha-1/beta-2/gamma-2 (Rattus norvegicus) (UniProt P18508+P62813+P63138); assay: (§1) Percent GABA current elicited in Xenopus laevis oocytes expressing rat GABA-A alpha-1-beta-2-gamma-2 subunits at 100 uM [(-)inhibition, (+)stimulation]; assay type: functional, cell-based; details: Oocyte
[8] = target: T1, GABA-A receptor; anion channel (Rattus norvegicus); assay: In vitro displacement of [3H]muscimol from Gamma-aminobutyric acid A receptor of rat brain membrane preparations at 100 uM
[9] = target: T2, GABA-A receptor; alpha-1/beta-2/gamma-2 (Rattus norvegicus); details: Oocyte, 1 uM
Description: Percent GABA current elicited in Xenopus laevis oocytes expressing rat GABA-A alpha-1-beta-2-gamma-2 subunits at 1 uM [(-)inhibition, (+)stimulation]

[10] = target: T1, GABA-A receptor; anion channel (Rattus norvegicus); details: Brain, Membrane, 10 nM
Description: Displacement of [3H]flunitrazepam from GABA-A receptor of rat brain membrane preparations at 10 nM

[11] = target: T1, GABA-A receptor; anion channel (Rattus norvegicus); assay: Displacement of [3H]flunitrazepam from GABA-A receptor of rat brain membrane preparations at 100 uM
[12] = target: T1, GABA-A receptor; anion channel (Rattus norvegicus); assay: In vitro displacement of [35S]TBPS from Gamma-aminobutyric acid A receptor of rat brain membrane preparations at 100 uM
[13] = target: T2, GABA-A receptor; alpha-1/beta-2/gamma-2 (Rattus norvegicus); assay: Percent GABA current elicited in Xenopus laevis oocytes expressing rat GABA-A alpha-1-beta-2-gamma-2 subunits at 50 uM [(-)inhibition, (+)stimulation]; assay type: functional, cell-based; details: Oocyte
[14] = target: T1, GABA-A receptor; anion channel (Rattus norvegicus); assay: In vitro displacement of [35S]TBPS from Gamma-aminobutyric acid A receptor of rat brain membrane preparations at 100 uM (Limited solubility)
[15] = as §1; assay type: functional, Oocyte
[16] = target: T2, GABA-A receptor; alpha-1/beta-2/gamma-2 (Rattus norvegicus); assay: Percent GABA current elicited in Xenopus laevis oocytes expressing rat GABA-A alpha-1-beta-2-gamma-2 subunits at 10 uM [(-)inhibition, (+)stimulation]; assay type: functional, cell-based; details: Oocyte
[17] = target: T1, GABA-A receptor; anion channel (Rattus norvegicus); assay: Displacement of [3H]flunitrazepam from GABA-A receptor of rat brain membrane preparations at 100uM, Limited solubility

Row | Compound | Displacement [1] | Displacement [2] | Displacement [5] | GABA current [7] | Displacement [8] | Displacement [11] | Displacement [12] | other results
1 | CC1=C[C@@H]([C@@H]2c3ccccc3CCN2C(=O)OCc2ccccc2)OC1=O | 43% | 16% | -7% | 130% |  |  |  | IC50 [3]: 7 µM; IC50 [4]: 12 µM; Displacement [6]: Insoluble
2 | CN1C(=O)CN=C(c2ccccc2)c2cc(Cl)ccc21 |  | 25% |  |  | -13% |  |  | GABA current [9]: 300%; Displacement [10]: 33%
3 | COc1cc2c(cc1OC)[C@@H]([C@@H]1C=CC(=O)O1)N(C(=O)OCc1ccccc1)CC2 | 5% | 5% |  | 20% | -1% | 15% | 47% | 
4 | O=C1C=C[C@H]([C@@H]2c3cc4c(cc3CCN2C(=O)OCc2ccccc2)OCO4)O1 | 27% | 18% | -7% |  |  |  |  | GABA current [13]: 128%; Displacement [6]: Insoluble; Displacement [14]: Insoluble
5 | CN1CCc2cc3c(cc2[C@H]1[C@@H]1OC(=O)c2c1ccc1c2OCO1)OCO3 |  |  | 45% | -100% |  | 7% | -1% | 
6 | COc1cc2c(cc1OC)[C@@H]([C@H]1C=C(C)C(=O)O1)N(C)CC2 |  |  |  | -10% | -1% | 12% | 4% | 
7 | COc1cc2c(cc1OC)[C@@H]([C@H]1C=C(C)C(=O)O1)N(C(=O)OCc1ccccc1)CC2 |  |  |  | 60% | -23% | 31% | 63% | 
8 | O=C1C=C[C@@H]([C@@H]2c3ccccc3CCN2C(=O)OCc2ccccc2)O1 | 93% | 14% | -12% | 281% | -13% |  | 82% | 
9 | COc1cc2c(cc1OC)[C@@H]([C@H]1C=CC(=O)O1)N(C(=O)OCc1ccccc1)CC2 | 15% | 5% | 7% | 43% | 10% | 51% | 50% | 
10 | O=C1C=C[C@@H]([C@@H]2c3cc4c(cc3CCN2C(=O)OCc2ccccc2)OCO4)O1 | 20% | 19% | -5% |  |  |  |  | GABA current [13]: 215%; Displacement [6]: Insoluble; Displacement [14]: Insoluble
11 | COc1cc2c(cc1OC)[C@@H]([C@@H]1C=C(C)C(=O)O1)N(C)CC2 |  |  |  | -8% | 4% | 8% | 2% | 
12 | CC1=C[C@H]([C@@H]2c3cc4c(cc3CCN2C)OCO4)OC1=O | 6% | 1% |  | -7% | 5% | 30% | 3% | 
13 | O=C1C=C[C@H]([C@@H]2c3ccccc3CCN2C(=O)OCc2ccccc2)O1 | 51% | 18% | -9% | 225% | -2% |  | 85% | 
14 | CC1=C[C@@H]([C@@H]2c3cc4c(cc3CCN2C)OCO4)OC1=O |  |  |  |  | 3% | 21% | 3% | GABA current [15]: -3%
15 | COc1cc2c(cc1OC)[C@@H]([C@@H]1C=C(C)C(=O)O1)N(C(=O)OCc1ccccc1)CC2 |  |  |  | 24% | -1% | 4% | 11% | 
16 | O=C1CC[C@@H]([C@@H]2c3ccccc3CCN2C(=O)OCc2ccccc2)O1 | 96% | 11% | -18% | 351% | -2% |  | 82% | GABA current [16]: 111%; IC50 [3]: 0.06 µM; IC50 [4]: 0.16 µM
17 | CC1=C[C@H]([C@@H]2c3ccccc3CCN2C(=O)OCc2ccccc2)OC1=O | 27% | 20% | -4% | 208% |  |  |  | Displacement [17]: Insoluble; IC50 [3]: 17 µM; IC50 [4]: 25 µM; Displacement [6]: Insoluble
